Measurements taken from patent EP0024372A1, “Derivatives of clavulanic acid, their preparation and pharmaceutical compositions containing them” (BEECHAM GROUP PLC, priority 1979, dated 1981).

Legend:
Test in all cases: standard MIC microtitre synergy test with ampicillin
Assay type in all cases: cell-based
[1] = tested on: Staphylococcus aureus Russell; settings: one cell spanning Inhibitor Concentration 20, 5 and 1 μg/ml
From the text: (§1) In a standard MIC microtitre synergy test with ampicillin the following results were obtained with the compound of Example 7.

E.coli JT39 = tested on: E.coli JT39
From the text: as §1

Klebsiella aerogenes E70 = tested on: Klebsiella aerogenes E70
From the text: as §1

Proteus mirabilis C889 = tested on: Proteus mirabilis C889
From the text: as §1

[2] = Inhibitor Concentration 1 μg/ml
[3] = Inhibitor Concentration 5 μg/ml
[4] = Inhibitor Concentration 20 μg/ml

- MIC microtitre synergy test with ampicillin [1]: - Inhibition -
- MIC microtitre synergy test with ampicillin (E.coli JT39; [2]): 125
- MIC microtitre synergy test with ampicillin (E.coli JT39; [3]): 16
- MIC microtitre synergy test with ampicillin (E.coli JT39; [4]): 2
- MIC microtitre synergy test with ampicillin (Klebsiella aerogenes E70; [2]): 12.5
- MIC microtitre synergy test with ampicillin (Klebsiella aerogenes E70; [3]): 6.25
- MIC microtitre synergy test with ampicillin (Klebsiella aerogenes E70; [4]): 3.1
- MIC microtitre synergy test with ampicillin (Proteus mirabilis C889; [2]): 16
- MIC microtitre synergy test with ampicillin (Proteus mirabilis C889; [3]): 16
- MIC microtitre synergy test with ampicillin (Proteus mirabilis C889; [4]): 8
Structure (SMILES): O=C(O)[C@H]1/C(=C/Cc2ccccc2O)O[C@@H]2CC(=O)N21 [Example 7, Lithium 9-(2-hydroxyphenyl)deoxyclavulanate]
